Values of other authors as cited in patent US20170071839A1, “Personal care and medicinal products incorporating organosulfur groups” (priority 2015, published 2017).
Where two headings read alike, the source gives them in different places.

What was measured:
[1] = after garlic consumption
[2] = after fresh garlic (e.g. 25 g) or pure allicin (60 mg)
[3] = shelf stability
[4] = not given; remark: listed apart in the source
[5] = tested on: Salmonella typhimurium and E. coli
[6] = target: NFkB signal transduction proteins p50 and P65 (Homo sapiens, UniProt P19838+Q04206)
[7] = tested on: total glutathione level of cells
[8] = tested on: acetaminophen (Tylenol) poisoning
NFkB = conditions: macrophages

## C=CCSC [AMS, allyl methyl sulfide]
[1]
  time of disappearance from breath: 20 h

## C=CCS[S+]([O-])CC=C (stereo not drawn) [Allicin, DiAllylThioSulfinate]
other
  Reaction in Blood Product (moles): AllylSH (1.6)
Red blood cells exposed to allicin
  time to be metabolized to allyl mercaptan: less than one
[2]
  detection in blood, urine, or stool: undetectable
[3]
  half-life: weeks to months

## CS[S+](C)[O-] (stereo not drawn) [methyl methane thiosulfinate]
E-coli O157:H7
  activity against E-coli O157:H7: effective

## C=CCSSCC=C [DADS, Diallyl Disulfide]
other
  Reaction in Blood Product (moles): AllylSH (0.8)

## C=CCS [AllylSH, AllylThiol]
[1]
  time of disappearance from breath: ≤ 1 h
[4]
  solubility: water soluble

## C=CCSSCCC [n-propyl allyl disulfide]
[5]
  antibiotic effectiveness: antibiotic effectiveness

## S-allylcysteine sulfoxide [alliin]
LDL
  effect on Cu2+ induced LDL oxidation: significantly reduce

## [N]=O [nitric oxide]
[6]
  concentration that inhibited the DNA binding activity: 20-100 nano mole

## CCCS[S+]([O-])CCC (stereo not drawn) [dipropylthiosulfinate]
Nematicidal activity
  nematicidal activity: most effective compound

## C=CCSSC[C@H](N)C(=O)O [SAMC, S-AllylMercaptoCysteine]
other
  Reaction in Blood Product (moles): AllylSH (0.8)
[7]
  total glutathione level of cells: significantly increase the total glutathione level
LDL
  effect on Cu2+ induced LDL oxidation: significantly reduce
[8]; post treatment, single dose 200 mg/kg
  protection from acetaminophen poisoning: protective
[8]; pretreatment
  protection from acetaminophen poisoning: protect mice

## C=CCS[S+](C)[O-] (stereo not drawn) [methyl allyl thiosulfinate]
E-coli O157:H7
  activity against E-coli O157:H7: effective

## N[C@@H](CSN=O)C(=O)O [S-Nitrosocysteine]
NFkB
  concentration that nearly completely inhibits the activation of NFkB: 1 micro-mole

## C=CCSC[C@H](N)C(=O)O [S-allylcysteine]
LDL
  effect on Cu2+ induced LDL oxidation: significantly reduce

## C=CCSC[C@H](NC(C)=O)C(=O)O [N-acetyl-S-allylcysteine]
LDL
  effect on Cu2+ induced LDL oxidation: significantly reduce

## CCCSSCCC [di-n-proply disulfide]
[5]
  antibiotic effectiveness: antibiotic effectiveness

## N[C@@H](CSSC[C@H](N)C(=O)O)C(=O)O [Cysteine disulfide, Cystine]
[4]
  solubility: low solubility
